The structures appear in SMILES notation. Some results are limits rather than exact numbers.

Here are results for nine molecules from US20080292584A1 (priority 2005, published 2008).

For data set [1], the system named is CYP2B6. The data set is described as follows: Induction/inhibition of CYP2B6 activity in cryopreserved human hepatocytes (S-mephenytoin). The conditions noted are these: 1 mM Phenobarbital; each hepatocyte donor. The source says:
(§1) Hepatocytes from three human donors were obtained from a cryopreserved hepatocyte bank (In Vitro Technologies, Inc., USA). After thawing, viable hepatocytes were transferred to collagen-coated 48-well plates for attachment in plating medium (DMEM stock (Dulbecco's modified Eagle's medium, supplemented with bovine serum albumin, fructose, N-(2-hydroxyethyl)piperazine-N′-(2-ethanesulfonate) (HEPES), and sodium bicarbonate), supplemented with antibiotics, bovine serum, hydrocortisone, insulin and minimum essential medium (MEM) nonessential amino acids). After attachment to the collagen matrix, plating medium was replaced with sandwich medium (plating medium supplemented with VITROGEN) and incubated until use.
(§2) The supplemented KHB was replaced with 150 μL supplemented KHB containing the appropriate isoform-selective substrate and incubated for 4 hrs prior to termination by adding 150 μL ice-cold methanol, except for the CYP2C8 incubations which were terminated by adding 150 μL acetonitrile.
(§3) All substrates were dissolved in acetonitrile.
(§4) Replicate trials and controls were performed. […] Additionally, reference control samples were included to evaluate inducibility of CYP2B6, CYP2C9, and CYP2C19 in the test system.
(§5) Mean specific activity values with associated p-values≦0.05 were deemed to be statistically significant.

The target in a further data set is CYP2E1 (Homo sapiens, UniProt P05181). The data set is described as follows: Chemical inhibition of metaxalone turnover in human liver microsomes, CYP2E1 inhibitor clomethiazole. The note with it: both, human, microsomes, pH 7.4, Inhibition of metaxalone disappearance (% inhibition of turnover).
For data set [2], the target named is T1, CYP1A2 (Homo sapiens, UniProt P05177).
T1 sequence (P05177 1-516): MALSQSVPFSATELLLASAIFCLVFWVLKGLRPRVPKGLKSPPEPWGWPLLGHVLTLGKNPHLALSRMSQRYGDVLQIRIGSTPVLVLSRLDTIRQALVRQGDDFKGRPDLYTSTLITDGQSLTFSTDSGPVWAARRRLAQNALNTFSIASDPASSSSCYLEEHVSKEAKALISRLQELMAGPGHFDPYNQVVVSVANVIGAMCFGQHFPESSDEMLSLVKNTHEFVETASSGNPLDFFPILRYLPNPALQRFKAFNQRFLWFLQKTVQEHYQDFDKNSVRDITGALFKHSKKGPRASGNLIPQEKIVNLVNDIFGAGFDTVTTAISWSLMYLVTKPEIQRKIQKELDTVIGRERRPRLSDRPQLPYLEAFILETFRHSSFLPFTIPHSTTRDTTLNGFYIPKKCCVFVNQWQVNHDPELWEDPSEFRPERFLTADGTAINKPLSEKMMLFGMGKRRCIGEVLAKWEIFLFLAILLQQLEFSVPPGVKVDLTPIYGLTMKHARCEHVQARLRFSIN
As to the kind of experiment: Chemical inhibition of metaxalone turnover in human liver microsomes, CYP1A2 selective inhibitor furafylline. The note with it: both, pooled human liver microsomes.

Another data set has as its target CYP3A4 (Homo sapiens, UniProt P08684). As to the kind of experiment: in vitro. The conditions noted are these: both, pooled human liver microsomes.
The subject of data set [3] is CYP1A2. The data set is described as follows: Induction/inhibition of CYP1A2 activity in cryopreserved human hepatocytes after 48 h exposure (phenacetin). The conditions noted are these: human, 48 h, 50 μM.
Source text: as §1, §2, §3, §4, §5

The test system of the next data set is CYP2A6. The data set is described as follows: Chemical inhibition of metaxalone turnover in human liver microsomes, CYP2A6 inhibitor pilocarpine. The note with it: both, human, microsomes, pH 7.4, Inhibition of metaxalone disappearance (% inhibition of turnover).
Another data set has as its target T2, CYP2C8 (Homo sapiens, UniProt P10632).
T2 sequence (P10632 1-490): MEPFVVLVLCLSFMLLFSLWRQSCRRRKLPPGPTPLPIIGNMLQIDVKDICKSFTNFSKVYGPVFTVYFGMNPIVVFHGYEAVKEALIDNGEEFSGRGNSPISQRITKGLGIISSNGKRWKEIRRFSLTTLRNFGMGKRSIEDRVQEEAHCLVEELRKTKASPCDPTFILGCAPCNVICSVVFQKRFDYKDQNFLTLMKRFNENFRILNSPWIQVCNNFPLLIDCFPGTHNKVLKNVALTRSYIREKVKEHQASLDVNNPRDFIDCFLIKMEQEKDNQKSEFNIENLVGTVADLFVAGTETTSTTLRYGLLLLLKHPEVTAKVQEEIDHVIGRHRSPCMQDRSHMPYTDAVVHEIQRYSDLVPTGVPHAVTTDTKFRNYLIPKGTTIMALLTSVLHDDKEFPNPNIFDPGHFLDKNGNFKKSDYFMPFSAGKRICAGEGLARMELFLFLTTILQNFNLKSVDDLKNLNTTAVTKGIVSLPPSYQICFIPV
The data set is described as follows: Chemical inhibition of metaxalone turnover in human liver microsomes, CYP2C8 inhibitor quercetin. The conditions noted are these: both, human, pooled human liver microsomes.

In a further data set the target is CYP2C9 (Homo sapiens, UniProt P11712). The data set is described as follows: in vitro. The conditions noted are these: both, microsomes, pH 7.4, Inhibition of metaxalone disappearance (% inhibition of turnover).
Data set [4] relates to CYP2B6. As to the kind of experiment: Chemical inhibition of metaxalone turnover in human liver microsomes, CYP2B6 inhibitor thio-TEPA. The conditions noted are these: both, human, microsomes, pH 7.4, Inhibition of metaxalone disappearance (% inhibition of turnover).
[5] abbreviates: pH 7.4, probe metaxalone 0.75 μM (disappearance).
The mark [6] stands for this setting: pH 7.4, probe metaxalone 7.5 μM (disappearance).

Chain of CYP2C9 (P11712 whole entry): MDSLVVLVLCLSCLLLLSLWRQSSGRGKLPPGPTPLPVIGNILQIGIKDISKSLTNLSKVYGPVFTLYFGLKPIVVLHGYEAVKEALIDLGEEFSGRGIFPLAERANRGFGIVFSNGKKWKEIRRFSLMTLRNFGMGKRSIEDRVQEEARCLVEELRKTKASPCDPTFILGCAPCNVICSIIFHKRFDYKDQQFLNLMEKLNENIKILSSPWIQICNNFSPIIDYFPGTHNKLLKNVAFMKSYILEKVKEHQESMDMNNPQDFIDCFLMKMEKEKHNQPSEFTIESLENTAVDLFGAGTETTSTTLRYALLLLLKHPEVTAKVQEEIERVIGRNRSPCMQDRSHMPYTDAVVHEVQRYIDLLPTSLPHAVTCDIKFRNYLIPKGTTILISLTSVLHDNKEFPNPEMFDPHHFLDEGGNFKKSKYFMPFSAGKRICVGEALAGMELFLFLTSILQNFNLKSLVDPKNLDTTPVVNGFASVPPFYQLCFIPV
Chain of CYP3A4 (P08684 whole entry): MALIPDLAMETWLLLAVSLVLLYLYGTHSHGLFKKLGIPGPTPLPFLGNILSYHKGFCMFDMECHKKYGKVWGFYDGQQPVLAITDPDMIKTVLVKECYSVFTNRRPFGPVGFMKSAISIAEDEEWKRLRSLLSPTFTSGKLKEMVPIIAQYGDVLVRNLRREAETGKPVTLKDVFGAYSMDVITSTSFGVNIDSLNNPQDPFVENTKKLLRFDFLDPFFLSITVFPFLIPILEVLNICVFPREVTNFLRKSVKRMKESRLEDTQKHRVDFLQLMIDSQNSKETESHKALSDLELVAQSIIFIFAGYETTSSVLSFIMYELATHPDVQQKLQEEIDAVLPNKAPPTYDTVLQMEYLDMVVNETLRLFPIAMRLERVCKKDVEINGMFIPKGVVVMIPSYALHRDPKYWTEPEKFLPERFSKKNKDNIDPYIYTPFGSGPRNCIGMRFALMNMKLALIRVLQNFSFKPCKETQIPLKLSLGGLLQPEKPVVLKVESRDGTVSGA
Chain of CYP2E1 (P05181 whole entry): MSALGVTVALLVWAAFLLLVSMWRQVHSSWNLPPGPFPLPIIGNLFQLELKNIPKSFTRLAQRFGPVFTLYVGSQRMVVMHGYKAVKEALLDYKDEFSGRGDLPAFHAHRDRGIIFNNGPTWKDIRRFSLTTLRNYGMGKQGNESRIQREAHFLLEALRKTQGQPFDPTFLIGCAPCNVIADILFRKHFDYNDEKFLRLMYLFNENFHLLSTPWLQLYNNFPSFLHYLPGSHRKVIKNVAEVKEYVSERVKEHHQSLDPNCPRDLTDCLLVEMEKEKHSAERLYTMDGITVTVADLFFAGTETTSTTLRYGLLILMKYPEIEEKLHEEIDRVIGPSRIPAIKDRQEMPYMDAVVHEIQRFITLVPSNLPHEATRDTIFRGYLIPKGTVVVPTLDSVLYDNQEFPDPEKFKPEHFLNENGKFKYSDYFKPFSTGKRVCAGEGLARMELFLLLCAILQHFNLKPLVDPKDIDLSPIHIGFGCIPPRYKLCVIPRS

Turning to `CCC1(c2ccccc2)C(=O)NC(=O)NC1=O` [Phenobarbital], the “induction (reference control)” value in the data set with CYP2B6 [1] is listed as “statistically significant amount of induction”.
On to `Cc1ncsc1CCCl` [clomethiazole], for which the inhibition at 60 min against CYP2E1 (0.75 μM metaxalone) worked out at 113 ± 21%; at CYP2E1 (7.5 μM metaxalone), 98.6 ± 4.9%.
As for `Cc1nc2c([nH]1)c(=O)n(C)c(=O)n2Cc1ccco1` [furafylline], the results for the inhibition at 60 min at CYP1A2 [2] (setting [5]) and on CYP1A2 [2] (setting [6]) were 111 ± 29% and 80.6 ± 2.4%, respectively.
As to `CC(=O)N1CCN(c2ccc(OCC3COC(Cn4ccnc4)(c4ccc(Cl)cc4Cl)O3)cc2)CC1` (stereo not shown) [ketoconazole], the inhibition at 60 min against CYP3A4 (setting [5]) amounted to 126 ± 5%; against CYP3A4 (setting [6]), 130 ± 18%.
As for `COc1ccc2[nH]c([S+]([O-])Cc3ncc(C)c(OC)c3C)nc2c1` (stereo not shown) [omeprazole], the induction in the data set on CYP1A2 [3] is recorded as at least 200%.
For `CC[C@@H]1C(=O)OC[C@@H]1Cc1cncn1C` [pilocarpine], the figures for the inhibition at 60 min in the data set with CYP2A6 (0.75 μM metaxalone) and in the data set on CYP2A6 (7.5 μM metaxalone) were 46.2 ± 5.7% and 50.8 ± 6.9%, respectively.
Consider `O=c1c(O)c(-c2ccc(O)c(O)c2)oc2cc(O)cc(O)c12` [quercetin], for which the inhibition at 60 min at CYP2C8 (setting [5]) was found to be 77.2 ± 13.6%; at CYP2C8 (setting [6]) it was 84.7 ± 18.3%.
For the molecule `Nc1ccc(S(=O)(=O)Nc2ccnn2-c2ccccc2)cc1` [sulfaphenazole], the inhibition at 60 min at CYP2C9 (0.75 μM metaxalone) was 81.4 ± 0.3%; on CYP2C9 (7.5 μM metaxalone) it was 52.8 ± 2.9%.
`S=P(N1CC1)(N1CC1)N1CC1` [thio-TEPA]: the inhibition at 60 min in the data set with CYP2B6 [4] (0.75 μM metaxalone) stood at 58.3 ± 2.4%; in the data set on CYP2B6 [4] (7.5 μM metaxalone), 43.3 ± 13.8%.
